Experimental data as given in doi:10.1101/2021.01.22.427858v1 (biorxiv, 2021).

Target: T1, Human Serum Albumin (HSA) (Homo sapiens, UniProt P02768)
Experiment: differential scanning calorimetry
Assay type: binding
Settings: not given

T1 sequence (P02768 25-609): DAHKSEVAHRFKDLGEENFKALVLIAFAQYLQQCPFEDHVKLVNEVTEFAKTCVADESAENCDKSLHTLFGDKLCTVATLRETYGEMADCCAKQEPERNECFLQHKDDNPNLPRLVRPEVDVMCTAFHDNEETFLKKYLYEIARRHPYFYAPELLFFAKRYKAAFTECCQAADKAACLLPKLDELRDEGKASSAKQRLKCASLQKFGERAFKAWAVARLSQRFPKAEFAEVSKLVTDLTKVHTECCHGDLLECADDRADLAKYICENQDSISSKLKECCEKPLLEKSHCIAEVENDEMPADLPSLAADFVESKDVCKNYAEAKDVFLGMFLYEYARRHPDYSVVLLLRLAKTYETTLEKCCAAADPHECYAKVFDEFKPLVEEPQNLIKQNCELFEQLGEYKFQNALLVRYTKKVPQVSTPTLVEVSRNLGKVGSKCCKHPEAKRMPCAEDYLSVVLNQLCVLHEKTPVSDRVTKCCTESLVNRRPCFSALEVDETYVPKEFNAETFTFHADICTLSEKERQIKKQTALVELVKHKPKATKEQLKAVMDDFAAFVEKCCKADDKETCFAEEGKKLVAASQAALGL

Row | Compound | KD1
1 | CN(C)C(=N)NC(=N)N [Metformin] | 2.01 ± 0.43 10^-6 M

Target: T1, Human Serum Albumin (HSA)
Experiment: differential scanning calorimetry, bi-dose-response fit
Settings: not given

Row | Compound | KD1
2 | C[CH2][Hg][S]c1ccccc1C(=O)O [Thimerosal] | 3.13 ± 0.43 10^-6 M

Target: T1, Human Serum Albumin (HSA)
Experiment: biochemical
Assay type: binding
Settings: not given

Row | Compound | Kd
3 | Cc1c(C2(c3cc(Br)c(O)c(Br)c3C)OS(=O)(=O)c3ccccc32)cc(Br)c(O)c1Br [Bromocresol Green] | 3.31 ± 1.7 µM
4 | O=C1OC2(c3ccc(O)cc3Oc3cc(O)ccc32)c2ccccc21 [Fluorescein] | 3.31 ± 1.7 µM

Target: T1, Human Serum Albumin (HSA)
Experiment: not given
Settings: binder

Row | Compound | dTm (C)
5 | Cc1c(C2(c3cc(Br)c(O)c(Br)c3C)OS(=O)(=O)c3ccccc32)cc(Br)c(O)c1Br [Bromocresol Green] | 6.29 °C
6 | C[C@H]1O[C@@H](O[C@H]2[C@@H](O)C[C@H](O[C@H]3[C@@H](O)C[C@H](O[C@H]4CC[C@@]5(C)[C@H](CC[C@@H]6[C@@H]5CC[C@]5(C)[C@@H](C7=CC(=O)OC7)CC[C@]65O)C4)O[C@@H]3C)O[C@@H]2C)C[C@H](O)[C@@H]1O [Digitoxin] | 3.92 °C
7 | COc1ccc2cc([C@H](C)C(=O)O)ccc2c1 [Naproxen] | 5.52 °C

Same assay, conditions: ligand concentration not given; binder

Row | Compound | dTm (C)
8 | C=CC1=C(C)/C(=C/c2[nH]c(Cc3[nH]c(/C=C4\NC(=O)C(C)=C4C=C)c(C)c3CCC(=O)O)c(CCC(=O)O)c2C)NC1=O [Bilirubin] | 0.30 °C
9 | CC(NC(C)(C)C)C(=O)c1cccc(Cl)c1 (stereo not drawn) [Buproprion] | 0.62 °C
10 | Cn1c(=O)c2c(ncn2C)n(C)c1=O [Caffeine] | 0.47 °C
11 | C[C@H](CS)C(=O)N1CCC[C@H]1C(=O)O [Captopril] | -0.41 °C
12 | CCN(CC)CCCC(C)Nc1ccnc2cc(Cl)ccc12 (stereo not drawn) [Chloroquine] | 1.43 °C
13 | CCCCCCCCCC(=O)O [Decanoic Acid] | 24.56 °C
14 | O=C1OC2(c3ccc(O)cc3Oc3cc(O)ccc32)c2ccccc21 [Fluorescein] | 7.95 °C
15 | CN(C)C(=N)NC(=N)N [Metformin] | -0.31 °C
16 | COCCc1ccc(OCC(O)CNC(C)C)cc1 (stereo not drawn) [Metoprolol] | -0.40 °C
17 | CCCCNc1ccc(C(=O)OCCN(C)C)cc1 [Tetracaine] | 3.16 °C
18 | C[C@]12CC[C@@H]3c4ccc(O)cc4CC[C@H]3[C@@H]1CC[C@@H]2O [β-Estradiol] | 0.92 °C
